Laboratory results taken from ChEMBL document CHEMBL1135961, “Synthesis and biological activity of 8beta-substituted hydrocodone indole and hydromorphone indole derivatives” (Bioorg Med Chem Lett, 2002).
pKi: −log10 of the molar value.

Tests used:
[1] = target: Mu-type opioid receptor (Homo sapiens) (UniProt P35372); test: Selectivity determined for mu opioid receptor to that of delta opioid receptor
Mu-type opioid receptor [2] = target: T1, Mu-type opioid receptor (Cavia porcellus, UniProt P97266); test: Binding affinity for mu opioid receptor by displacing DAMGO was determined in [35S]-GTP gamma-S binding assay; Inactive; format: functional
[3] = target: T2, Kappa-type opioid receptor (Cavia porcellus, UniProt P41144); test: Binding affinity for kappa opioid receptor by displacing U-69,593 was determined in [35S]-GTP gamma-S binding assay; Inactive; format: functional
[4] = target: T2, Kappa-type opioid receptor; test: Binding affinity for kappa opioid receptor by displacing U-69,593 was determined in [35S]GTP gamma-S binding assay; format: functional
[5] = target: Mu-type opioid receptor (Homo sapiens) (UniProt P35372); test: Selectivity for mu to that of delta opioid receptor was determined in [35S]-GTP gamma-S binding assay
Mu-type opioid receptor [6] = target: T1, Mu-type opioid receptor; test: Binding affinity for mu opioid receptor by displacing DAMGO was determined in [35S]GTP gamma-S binding assay; format: functional

T2 sequence (P41144 whole entry): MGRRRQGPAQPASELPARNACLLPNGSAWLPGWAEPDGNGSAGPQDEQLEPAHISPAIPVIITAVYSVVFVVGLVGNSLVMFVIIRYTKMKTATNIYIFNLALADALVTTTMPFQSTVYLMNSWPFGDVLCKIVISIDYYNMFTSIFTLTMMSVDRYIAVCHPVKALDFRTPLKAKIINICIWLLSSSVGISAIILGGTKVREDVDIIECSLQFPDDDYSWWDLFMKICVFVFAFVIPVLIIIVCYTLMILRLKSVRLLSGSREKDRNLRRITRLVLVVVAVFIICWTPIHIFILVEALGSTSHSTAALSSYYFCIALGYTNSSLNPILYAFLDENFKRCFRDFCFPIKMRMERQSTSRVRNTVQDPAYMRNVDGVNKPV
T1 sequence (P97266 whole entry): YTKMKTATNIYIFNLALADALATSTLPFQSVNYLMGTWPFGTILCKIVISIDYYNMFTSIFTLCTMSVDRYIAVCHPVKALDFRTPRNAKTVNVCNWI
Mu-type opioid receptor (Homo sapiens), sequence (P35372 whole entry): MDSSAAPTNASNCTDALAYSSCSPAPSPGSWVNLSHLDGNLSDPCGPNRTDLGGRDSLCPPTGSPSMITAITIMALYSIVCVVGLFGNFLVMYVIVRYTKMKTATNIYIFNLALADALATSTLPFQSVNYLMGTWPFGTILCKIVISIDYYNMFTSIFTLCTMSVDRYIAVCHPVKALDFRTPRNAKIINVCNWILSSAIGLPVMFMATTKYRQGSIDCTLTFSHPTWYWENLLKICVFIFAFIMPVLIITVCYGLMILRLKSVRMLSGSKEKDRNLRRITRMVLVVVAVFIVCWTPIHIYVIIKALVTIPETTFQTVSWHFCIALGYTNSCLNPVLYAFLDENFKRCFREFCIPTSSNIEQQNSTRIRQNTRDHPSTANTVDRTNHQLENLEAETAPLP

| SMILES | Ratio [1] | pKi (Mu-type opioid receptor [2]) | pKi [3] | pKi [4] | Ratio [5] | pKi (Mu-type opioid receptor [6]) |
| --- | --- | --- | --- | --- | --- | --- |
| C[C@H]1c2c([nH]c3ccccc23)[C@@H]2Oc3c(O)ccc4c3C23CCN(CC2CC2)C(C4)C13 (some centres not stated) | 29 | – | – | – | – | – |
| C=CC(C)N1CCC23c4c5ccc(O)c4O[C@H]2c2[nH]c4ccccc4c2[C@H](C)C3C1C5 (some centres not stated) | 120 | – | – | – | – | – |
| COc1ccc2c3c1O[C@H]1c4[nH]c5ccccc5c4CC4C(C2)N(C)CCC341 (some centres not stated) | > 53 | < 6.22 | < 6.46 | – | – | – |
| COc1ccc2c3c1O[C@H]1c4[nH]c5ccccc5c4[C@H](C)C4C(C2)N(C)CCC341 (some centres not stated) | > 177 | < 6.22 | < 6.46 | – | – | – |
| CCCC[C@H]1c2c([nH]c3ccccc23)[C@@H]2Oc3c(OC)ccc4c3C23CCN(C)C(C4)C13 (some centres not stated) | > 12 | < 6.22 | < 6.46 | – | – | – |
| CN1CC[C@]23c4c5ccc(O)c4O[C@H]2c2[nH]c4ccccc4c2C[C@H]3[C@H]1C5 | 296 | – | – | 6.14 | 14 | 6.69 |
| C[C@H]1c2c([nH]c3ccccc23)[C@@H]2Oc3c(O)ccc4c3C23CCN(C)C(C4)C13 (some centres not stated) | 322 | < 6.22 | – | 6.40 | – | – |
| CCCC[C@H]1c2c([nH]c3ccccc23)[C@@H]2Oc3c(O)ccc4c3C23CCN(C)C(C4)C13 (some centres not stated) | 50 | – | – | 6.57 | 12 | 6.25 |
